In US10400008B2, “Modulators of the SRC-kinase activity for preventing or treating metastatic cancer” (Cancer Research Technology Limited, priority 2013, dated 2019):
Values joined by “and” are separate entries in the source; they are usually repeats but may differ in a detail not shown here. Equal values may be shown once. “Also recorded” adds a separate entry of the source.

Tests used:
[1] = molecular target: AR association with Src-SH3 domain (Homo sapiens, UniProt P12931); settings: androgen-challenged LNCaP cells, reference 10; cited from earlier work
HT1080 cells = test: BrdU incorporation (DNA synthesis) in HT1080 cells; format: cell-based, human; settings: 18 h, EGF 100 ng/ml, peptide 1 nM
Method: Androgen challenging of these cells neither induces AR nuclear translocation, nor enhances DNA synthesis while robustly increases cell motility. In A, quiescent HT1080 cells were transfected with 3416 or 3424 ARE-luc constructs with or without hAR expressing plasmid. Details of these procedures have been described in Methods. Cells were left un-stimulated or stimulated for 18 h with 10 nM R1881. The luciferase activity was assayed, normalized using beta-gal as an internal control, and expressed as fold induction. Means and SEM are shown; n represents the number of experiments. […] In B, quiescent HT1080 cells on coverslips were left untreated or treated for 60 min with 10 nM R1881. Cells were analysed by IF for AR (left images) or Hoechst (right images). Images are representative of three independent experiments. […] In C, BrdU incorporation in cells on coverslips was analysed and expressed as in FIG. 2. In D, the number of migrated cells was evaluated and expressed as relative increase. […]
FIG. 3: Inhibition by S1 peptide of AR/Src complex, Src activation and DNA synthesis triggered by EGF in HT1080 cells. […] Lower section in A, lysates were immune-precipitated with anti EGFR Ab and proteins in immune-complexes were detected using antibodies against the indicated proteins. […] After in vivo pulse with BrdU (100 μM; Sigma), BrdU incorporation was analyzed by IF and expressed as % of total nuclei. […]

PC-3 cells = test: Orthotopic PC-3 prostate cancer model: tumor volume and lymph node metastases; format: in vivo, BALB/c nude mice; settings: for incidence of lymph node metastasis: vs vehicle; for Total tumor volumes during the study: animals 2.x (0.04 mg/kg by heads of Tables 2-3)
Method: Six week-old immunodeficient BALB/c nude mice were allocated to six 15-mice groups according to the body weight. PC-3 cells were inoculated orthotopically into prostates of the mice. Dosing (s.c.) was started at study day 1 and continued daily for 28 days.
Mice were weighed twice a week, and after 4 weeks, mice were sacrificed. Gross necropsy was performed to all animals at the end of the study, and all macroscopic signs were recorded. Volume of the prostate tumors was measured and prostate as well as prostate draining lymph nodes were collected for histology. The number of metastasis in lymph nodes was determined under microscope.
The 0.01 mg/ml, 0.1 mg/ml, 1 mg/ml, 2.5 mg/ml and 5 mg/ml dosing suspensions were prepared from test peptide VAL001 by dilution to PBS. […] New dosing suspensions were prepared every week.
An animal model was used that can be effectively used for testing the effects of cancer drug candidates on the primary tumor growth in prostate microenvironment. In this model, human prostate cancer cells are inoculated into prostate of 4-5 week old male BALB/c nude mice. This mouse strain is immunodeficient, allowing rapid growth and spread of the human cancer cells. Within four weeks after the inoculation, animal develop large tumor to prostate and metastases to regional iliac and sacral lymph nodes. The animals are sacrificed at 4 weeks after inoculation, and their prostate with tumor and regional lymph nodes are collected for further histomorphometric analysis.
Male BALB/c nude mice (BALB/c OlaHsd-Foxn1^nu, obtained from Harlan, The Netherlands) were used for this study. The age of the animals was 6-7 weeks, and their body weights were approximately 16-23 g at the beginning of the study. The mice were specific pathogen free (SPF) and isolator-reared animals. Correct age and good clinical health were qualifications for the study. The acclimatization period for the mice was 4 days. Allocation to groups was performed by randomization procedure based on body weight. The animals were marked with ear marks. For orthotopic inoculations the mice were anesthetized with inhalation of isoflurane. Analgesia was provided before and 2 days after the orthotopic inoculation with buprenorphine: 0.1 mg/kg, s.c.
At the end of the study, the animals were weighed and sacrificed with cervical dislocation under anesthesia. Necropsy was carried out in all animals. Macroscopic findings were recorded on the follow-up forms. Tissue samples from prostate with tumor and lymph nodes were collected for histology and number of metastases in lymph nodes was determined.
Statistical analysis was performed with R: A Language and Environment for Statistical Computing (version 2.14.2; R Development Core Team, Vienna, Austria). The mean and standard deviation of the body weights and the tumor volumes at sacrifice were determined. Normality of the distributions and homogeneity of variance were checked before further analyses. In case of violating these assumptions, either log transformation or other appropriate transformation (e.g. square root, reciprocal) was applied. If the assumptions were fulfilled as such or after transformation, one-way ANOVA was used to study if the values obtained between the groups were statistically different (with p<0.05). If differences were found, Tukey's HSD test was used for pairwise comparison between all groups. If the assumptions were not fulfilled even after the transformations described above, the non-parametric Kruskal-Wallis test followed by Mann-Whitney U-test were used.
The statistical analysis of incidence of lymph node metastases was done using Fisher's exact test as one-sided test in which the null hypothesis reflected the assumption that the treatment […].

Sequence of AR association with Src-SH3 domain (P12931 2-536 limits assumed): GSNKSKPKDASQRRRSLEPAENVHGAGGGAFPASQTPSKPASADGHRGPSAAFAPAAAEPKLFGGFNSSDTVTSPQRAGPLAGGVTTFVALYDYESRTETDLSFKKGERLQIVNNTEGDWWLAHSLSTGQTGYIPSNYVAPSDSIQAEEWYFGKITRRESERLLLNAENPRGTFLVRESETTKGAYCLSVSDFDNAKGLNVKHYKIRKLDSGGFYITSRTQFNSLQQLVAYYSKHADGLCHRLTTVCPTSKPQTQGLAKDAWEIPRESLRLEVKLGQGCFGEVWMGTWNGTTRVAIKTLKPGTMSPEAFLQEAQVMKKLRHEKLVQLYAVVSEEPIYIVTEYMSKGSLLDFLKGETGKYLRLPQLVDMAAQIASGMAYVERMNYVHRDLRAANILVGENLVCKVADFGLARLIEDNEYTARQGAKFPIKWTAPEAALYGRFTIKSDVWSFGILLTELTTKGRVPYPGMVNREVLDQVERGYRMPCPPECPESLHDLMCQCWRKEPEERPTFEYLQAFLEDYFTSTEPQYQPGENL

In the case of Ac-PPPHPHARIK-NH2 [VAL001], the “AR association with Src-SH3 domain” value [1] is listed as “competes”, the “EGF-triggered DNA synthesis (BrdU incorporation)” value (HT1080 cells) is listed as “inhibits” and the “inhibition of the development of lymph node metastases” value (PC-3 cells; 0.04 mg/kg s.c. daily 28 days) is listed as 50%. For the same substance, the “incidence of lymph node metastasis” value (PC-3 cells; 0.04 mg/kg s.c. daily 28 days, Fisher's exact test p=0.01643) was “statistically significantly less; also recorded: inhibited statistically significantly”, the “inhibition of the development of lymph node metastases” value (PC-3 cells; 0.4 mg/kg s.c. daily 28 days) was 50% and the “incidence of lymph node metastasis” value (PC-3 cells; 0.4 mg/kg s.c. daily 28 days, Fisher's exact test p=0.03913) was “statistically significantly less; also recorded: inhibited statistically significantly”. The “decrease in tumor volume” value (PC-3 cells; 0.4 mg/kg s.c. daily 28 days, not statistically significant) was 35%, the “statistically significant effects on orthotopic tumor growth” value (PC-3 cells; 0.04-20 mg/kg s.c. daily 28 days) was “not observed” and the “tumor volumes between the treatment groups” value (PC-3 cells; 0.04-20 mg/kg s.c. daily 28 days, at sacrifice) was “no statistically significant differences”. The “Total tumor volumes during the study” value (PC-3 cells; day 5, single animals) was 22.3 and 11.5 and 21.5 and 16.9 and 26.7 and 29.3 (2×) and 27.8, the “Total tumor volumes during the study” value (PC-3 cells; day 7, single animals, in mm³ (unit assumed)) was 21.1 and 7.8 and 17.8 and 22.0 and 16.9 and 18.3 and 31.2 and 29.6 and the “Total tumor volumes during the study” value (PC-3 cells; day 9, single animals, in mm³ (unit assumed)) was 28.2 and 18.2 and 32.4 and 21.3 and 29.6 and 57.8 and 76.4 and 34.4. The “Total tumor volumes during the study” value (PC-3 cells; day 12, single animals, in mm³ (unit assumed)) was 51.3 and 20.1 and 39.6 and 56.1 and 24.6 and 57.0 and 116.3 and 70.3, the “Total tumor volumes during the study” value (PC-3 cells; day 14, single animals, in mm³ (unit assumed)) was 71.8 and 55.8 and 72.5 and 65.8 and 54.7 and 114.0 and 176.1 and 106.7 and the “Total tumor volumes during the study” value (PC-3 cells; day 16, single animals, in mm³ (unit assumed)) was 87.7 and 70.9 and 140.3 and 85.4 and 62.6 and 167.3 and 183.2 and 112.1. The “Total tumor volumes during the study” value (PC-3 cells; day 19, single animals, in mm³ (unit assumed)) was 202.0 and 163.3 and 186.2 and 140.9 and 104.4 and 181.7 and 332.0 and 227.3, the “Total tumor volumes during the study” value (PC-3 cells; day 21, single animals, in mm³ (unit assumed)) was 182.3 and 152.1 and 196.2 and 139.5 and 120.6 and 278.5 and 365.1 and 240.1 and the “Total tumor volumes during the study” value (PC-3 cells; day 23, single animals, in mm³ (unit assumed)) was 158.4 and 95.0 and 289.5 and 181.8 and 127.8 and 278.8 and 386.3 and 323.8 and 345.6. For the same substance, the “Total tumor volumes during the study” value (PC-3 cells; day 26, single animals, in mm³ (unit assumed)) was 277.2 and 233.9 and 254.0 and 243.7 and 239.4 and 381.2 and 618.5 and 328.7 and 518.9 and the “Total tumor volumes during the study” value (PC-3 cells; day 29, single animals, in mm³ (unit assumed)) was 382.9 and 204.8 and 258.0 and 216.8 and 245.1 and 418.0 and 750.0 and 430.6 and 288.0.
